In US4345938A, “Herbicidal 2-haloacetanilides” (Monsanto Company, priority 1980, dated 1982):
Like-named read-outs stand apart in the source and are kept apart here.

Columns and labels:
Assay type in all cases: in vivo
[1] = tested on: Echinochloa crus-galli; assay: Greenhouse transplant rice test, EC; details: about 3 WAT, read-out: Percent Inhibition, EC; for inhibition at 280 g/ha: 0.28 Kg/Ha; for inhibition at 560 g/ha: 0.56 Kg/Ha; for inhibition at 1120 g/ha: 1.12 Kg/Ha; for inhibition at 2240 g/ha: 2.24 Kg/Ha
Description: (§1) The test procedure used in this greenhouse test is as follows: Ray silt loam top soil containing about 0.05% by weight of krillium and sifted through a […] screen is fumigated about 5-10 days prior to use. Pots are then filled with said Ray silt loam soil to a level to allow for a 1 in. (2.54 cm) flooding depth. Rice plants (Bluebelle) of 2 to 3 weeks age are transplanted to the pots and bulbs or seeds of the test weeds also planted in the pots. The pots are then flooded and the test chemical applied to the surface of the flood water. The flood water is reduced to allow for germination of the Echinochloa crus-galli (barnyardgrass) seed and subsequently reflooded and maintained in that condition. Observations of percent inhibition using a scale of 0-100% are made about 3 weeks after transplant (WAT).
(§2) The test data in Table III for all compounds was obtained under identical test conditions. The weeds used in the tests herein have the following abbreviations in the tables: Echinochloa crus-galli (EC), Monochloria vaginalis (MV), Cyperus Serotinus (CS), Eleocharis Kuroguwai (EK) and Sagittaria trifolia (ST).

[2] = tested on: Sagittaria trifolia; assay: Greenhouse transplant rice test, ST; details: Sagittaria trifolia, about 3 WAT, read-out: Percent Inhibition, ST; for inhibition at 280 g/ha: 0.28 Kg/Ha; for inhibition at 560 g/ha: 0.56 Kg/Ha; for inhibition at 1120 g/ha: 1.12 Kg/Ha; for inhibition at 2240 g/ha: 2.24 Kg/Ha
Description: as §1, §2

[3] = tested on: Echinochloa crus-galli; assay: Field transplant rice test, applied 0 DAT, EC; details: 0 h, read-out: Percent Inhibition, EC; for inhibition at 375 g/ha: 0.375 Kg/Ha; for inhibition at 750 g/ha: 0.75 Kg/Ha; for inhibition at 1500 g/ha: 1.5 Kg/Ha; for inhibition at 3000 g/ha: 3.0 Kg/Ha
Method: as §2
(§3) In further comparative tests, a preferred compound of this invention (Example 1) was tested in the field with prior art Compounds A-D. These tests were conducted under conditions reflecting herbicide application times generally favorable to all herbicides in the test. The timing of application of herbicides to transplant rice is very important, whether, as in some instances, prior to transplanting the rice; in other instances, at the time of transplanting or else after transplanting. Application times are conventionally referred to as "days before transplant" (DBT) or "days after transplant" ("DAT"). The field test data in Table IV was obtained from a test in which the herbicides were applied at the time of transplant, i.e., "0 DAT", with observations being made weekly up to six weeks after transplant ("WAT") beginning at two weeks after transplant; for illustrative and representative purposes, only the early, middle and late period observations, i.e., 2 WAT, 4 WAT and 6 WAT, are shown in Table IV. The data in Table IV is for rates of application common to all herbicides in the test, i.e., from 3.0 kg/ha (2.67 lb/A) down to 0.375 kg/ha (0.34 lb/A). All herbicides were applied at their actual or expected use rates, i.e., as granules containing 2.5% by weight herbicide for the compound of Example 1, Compounds B, C and D and 5.0% by weight for Compound A.

[4] = tested on: Eleocharis kuroguwai; assay: Field transplant rice test, applied 0 DAT, EK; details: 0 h, read-out: Percent Inhibition, EK; for inhibition at 375 g/ha: 0.375 Kg/Ha; for inhibition at 750 g/ha: 0.75 Kg/Ha; for inhibition at 1500 g/ha: 1.5 Kg/Ha; for inhibition at 3000 g/ha: 3.0 Kg/Ha
Method: as §2, §3

[5] = tested on: Sagittaria trifolia; assay: Field transplant rice test, applied 9 DAT, ST; details: 216 h, read-out: Percent Inhibition, ST; for inhibition at 375 g/ha: 0.375 Kg/Ha; for inhibition at 750 g/ha: 0.75 Kg/Ha; for inhibition at 1500 g/ha: 1.5 Kg/Ha; for inhibition at 3000 g/ha: 3.0 Kg/Ha
Method: as §2, §3
In Table V are presented field data showing the relative performance of the compound of Example 1 and Compounds A-D applied 9 DAT, with observations being made weekly from 3 WAT to 7 WAT; again, for illustrative and representative purposes, only the early, middle and late period observations are reported in Table V, the herbicide rates and concentrations of active ingredients the same as is shown in Table IV.

[6] = tested on: Velvetleaf; assay: Pre-emergent herbicidal test, Velvetleaf; also: ranges in brackets are in %
Description: (§4) A good grade of top soil is placed in aluminum pans and compacted to a depth of three-eights to one-half inch from the top of the pan. On the top of the soil is placed a number of seeds or vegetative propagules of various plant species. The soil required to level fill the pans after seeding or adding vegetative propagules is weighted into a pan. The soil and a known amount of the active ingredient applied in a solvent or as a wettable powder suspension are thoroughly mixed, and used to cover the prepared pans. After treatment, the pans are moved into a greenhouse bench where they are watered by subirrigation as needed to give adequate moisture for germination and growth.
(§5) Approximately 2 weeks after seeding and treating, the plants were observed and the results recorded. The herbicidal rating was obtained by means of a fixed scale based on the percent injury of each plant species. The ratings are defined as follows: […]

[7] = tested on: Quackgrass; assay: Pre-emergent herbicidal test, Quackgrass; details: Table I; also: ranges in brackets are in %
Description: as §4, §5

[8] = tested on: Downy Brome; assay: Pre-emergent herbicidal test, Downy Brome; also: ranges in brackets are in %
Description: as §4, §5

[9] = tested on: Rice; assay: Pre-emergent herbicidal test, Rice; details: Table II; also: ranges in brackets are in %
Description: as §4, §5
The compounds were further tested by utilizing the above procedure on the following plant species: […]

CCCCOCN(C(=O)CCl)c1c(CC)cccc1CC [Compound A, 2',6'-diethyl-N-(n-butoxymethyl)-2-chloroacetanilide]
inhibition at 280 g/ha [1]: 96% | inhibition at 560 g/ha [1]: 100% | inhibition at 1120 g/ha [1]: 100% | inhibition at 2240 g/ha [1]: 100% | inhibition at 280 g/ha [2]: 15% | inhibition at 560 g/ha [2]: 45% | inhibition at 1120 g/ha [2]: 30% | inhibition at 2240 g/ha [2]: 15% | inhibition at 375 g/ha ([3]; 2 WAT): 60% | inhibition at 375 g/ha ([3]; 4 WAT): 72% | inhibition at 375 g/ha ([3]; 6 WAT): 60% | inhibition at 750 g/ha ([3]; 2 WAT): 90% | inhibition at 750 g/ha ([3]; 4 WAT): 100% | inhibition at 750 g/ha ([3]; 6 WAT): 100% | inhibition at 1500 g/ha ([3]; 2 WAT): 95% | inhibition at 1500 g/ha ([3]; 4 WAT): 100% | inhibition at 1500 g/ha ([3]; 6 WAT): 97% | inhibition at 3000 g/ha ([3]; 2 WAT): 98% | inhibition at 3000 g/ha ([3]; 4 WAT): 100% | inhibition at 3000 g/ha ([3]; 6 WAT): 100% | inhibition at 375 g/ha ([4]; 2 WAT): 65% | inhibition at 375 g/ha ([4]; 4 WAT): 33% | inhibition at 375 g/ha ([4]; 6 WAT): 10% | inhibition at 750 g/ha ([4]; 2 WAT): 45% | inhibition at 750 g/ha ([4]; 4 WAT): 22% | inhibition at 750 g/ha ([4]; 6 WAT): 0% | inhibition at 1500 g/ha ([4]; 2 WAT): 83% | inhibition at 1500 g/ha ([4]; 4 WAT): 78% | inhibition at 1500 g/ha ([4]; 6 WAT): 28% | inhibition at 3000 g/ha ([4]; 2 WAT): 90% | inhibition at 3000 g/ha ([4]; 4 WAT): 88% | inhibition at 3000 g/ha ([4]; 6 WAT): 68% | inhibition at 375 g/ha ([5]; 3 WAT): 37% | inhibition at 375 g/ha ([5]; 5 WAT): 12% | inhibition at 375 g/ha ([5]; 7 WAT): 7% | inhibition at 750 g/ha ([5]; 3 WAT): 26% | inhibition at 750 g/ha ([5]; 5 WAT): 10% | inhibition at 750 g/ha ([5]; 7 WAT): 8% | inhibition at 1500 g/ha ([5]; 3 WAT): 35% | inhibition at 1500 g/ha ([5]; 5 WAT): 5% | inhibition at 1500 g/ha ([5]; 7 WAT): 3% | inhibition at 3000 g/ha ([5]; 3 WAT): 52% | inhibition at 3000 g/ha ([5]; 5 WAT): 23% | inhibition at 3000 g/ha ([5]; 7 WAT): 13%

CCCCOc1cccc(CC)c1N(CC)C(=O)CCl [Example 2, N-ethyl-2'-n-butoxy-6'-ethyl-2-chloroacetanilide]
Rating, Velvetleaf ([6]; Table I, 5.6 kg/h): 0 (0-24) | Rating, Velvetleaf ([6]; Table I, 11.2 kg/h): 1 (25-49) | Rating, Velvetleaf ([6]; Table II, 0.01 kg/h): 0 (0-24) | Rating, Velvetleaf ([6]; Table II, 0.06 kg/h): 0 (0-24) | Rating, Velvetleaf ([6]; Table II, 0.28 kg/h): 0 (0-24) | Rating, Velvetleaf ([6]; Table II, 1.12 kg/h): 0 (0-24) | Rating, Velvetleaf ([6]; Table II, 5.6 kg/h): 1 (25-49) | Rating, Quackgrass ([7]; 5.6 kg/h): 3 (75-100) | Rating, Quackgrass ([7]; 11.2 kg/h): 3 (75-100) | Rating, Downy Brome ([8]; Table I, 5.6 kg/h): 3 (75-100) | Rating, Downy Brome ([8]; Table I, 11.2 kg/h): 3 (75-100) | Rating, Downy Brome ([8]; Table II, 0.01 kg/h): 0 (0-24) | Rating, Downy Brome ([8]; Table II, 0.06 kg/h): 1 (25-49) | Rating, Downy Brome ([8]; Table II, 0.28 kg/h): 3 (75-100) | Rating, Downy Brome ([8]; Table II, 1.12 kg/h): 3 (75-100) | Rating, Downy Brome ([8]; Table II, 5.6 kg/h): 3 (75-100) | Rating, Rice ([9]; 0.01 kg/h): 0 (0-24) | Rating, Rice ([9]; 0.06 kg/h): 0 (0-24) | Rating, Rice ([9]; 0.28 kg/h): 1 (25-49) | Rating, Rice ([9]; 1.12 kg/h): 3 (75-100) | Rating, Rice ([9]; 5.6 kg/h): 3 (75-100) | inhibition at 280 g/ha [1]: 100% | inhibition at 560 g/ha [1]: 100% | inhibition at 1120 g/ha [1]: 100% | inhibition at 2240 g/ha [1]: 100% | inhibition at 280 g/ha [2]: 30% | inhibition at 560 g/ha [2]: 25% | inhibition at 1120 g/ha [2]: 70% | inhibition at 2240 g/ha [2]: 55%
